# According to patent US4263280A, “Synergistic mixtures” (priority 1978, dated 1981):
# Structures can show the parent of a compound that is named as a salt.
# Columns and labels:
# Proteus rettgeri 1121 = assay: in vitro MIC, chessboard microdilution, Proteus rettgeri 1121; format: cell-based; conditions: for MIC: Providencia rettgeri, 1121, read-out: MIC, antibiotic alone
# Protocol: (§1) The combination substances A and B are diluted in DST broth OXOID in chessboard arrangement with the aid of microtitre system in 1:2 steps. All the concentrations of substance A are combined with all the concentrations of substance B and then inoculated with a standardised bacteria suspension (final concentration about 10^4 bacilli/ml). After incubation for 18 hours at 37° C., the inhibition of the bacterial growth is determined. The inhibiting concentrations are converted by the method of Kerry et al. (J. Antimicrob. […] By way of example, a number of the MIC values for the action of cefsulodin sodium, mecillinam, mezlocillin and gentamicin alone against a number of micro-organisms, as well as the MIC values for a number of mixtures in which synergism occurs, are reported in Table 1.
# [1] = system: Pseudomonas aeruginosa 410; assay: in vitro MIC, chessboard microdilution, Pseudomonas aeruginosa 410; format: cell-based
# Protocol: as §1
# [2] = system: Pseudomonas aeruginosa 1140; assay: in vitro MIC, chessboard microdilution, Pseudomonas aeruginosa 1140; format: cell-based
# Protocol: as §1
# Escherichia coli 576 = assay: in vitro MIC, chessboard microdilution, Escherichia coli 576; format: cell-based
# Protocol: as §1
# [3] = system: Klebsiella pneumoniae 329; assay: systemic infection in mice, survival, Klebsiella pneumoniae 329; format: in vivo; conditions: fifth day
# Protocol: (§2) The combination substances A and B are diluted in 1:3 to 1:3.3 steps such that the average concentration contains the respective amount of substance A and substance B corresponding to the ED50.
# (§3) Female MF 2 mice weighing 18 to 22 g are divided at random into groups (n=20) and infected intraperitoneally with a standardised bacteria suspension which, according to strain, represents 5 to >20 LD50.
# (§4) Immediately after the infection, and 3 hours later, the mice are treated in groups subcutaneously with dilutions of substances A and B as well as with combinations thereof. These combinations are prepared shortly before administration by mixing each dilution of substance A with each dilution of substance B. The survival rates are determined on the fifth day after the infection. The survival rates of mice which are determined with each of substances A and B alone are compared with those obtained with the combinations of these substances. A combination which has protected more animals from death than would be expected from the independent action of the substances, is designated as having synergistic action.
# (§5) The survival rates, expressed as percentages of surviving animals, found in infections with a number of pure micro-organisms and in polyinfections is reported in Table 2 for cefsulodin sodium, mecillinam, mezlocillin, gentamicin and CGP 14 221/E, as well as for corresponding mixtures.
# [4] = system: Pseudomonas aeruginosa + Escherichia coli; assay: experimental pyelonephritis (polyinfection) in mice, Pseudomonas aeruginosa + Escherichia coli; format: in vivo; conditions: percentage of animals
# Protocol: (§6) Mice are treated intravenously with 10 mg/kg of carrageenin. Seven days later they are infected with a standardised suspension of bacteria. […] Two days after the last treatment, the mice are sacrificed, dissected and examined for the number of germs in the kidneys.
# [5] = system: Pseudomonas aeruginosa + Klebsiella pneumoniae; assay: experimental pyelonephritis (polyinfection) in mice, Pseudomonas aeruginosa + Klebsiella pneumoniae; format: in vivo; conditions: percentage of animals
# Protocol: as §6
# [6] = system: Pseudomonas aeruginosa 799A; assay: in vitro MIC, chessboard microdilution, Pseudomonas aeruginosa 799A; format: cell-based; conditions: for MIC: Pseudomonas aeruginosa, 799A, alone, 18 hours, 37° C., read-out: MIC, antibiotic alone
# Protocol: as §1
# Escherichia coli 12-44 = assay: in vitro MIC, chessboard microdilution, Escherichia coli 12-44; format: cell-based; conditions: for MIC: Escherichia coli, 1244, alone, 18 hours, 37° C., read-out: MIC, antibiotic alone
# Protocol: as §1
# [7] = system: Kiebsiella pneumoniae 1132; assay: in vitro MIC, chessboard microdilution, Klebsiella pneumoniae 1132; format: cell-based; conditions: for MIC: Klebsiella pneumoniae, 1132, alone, 18 hours, 37° C., read-out: MIC, antibiotic alone
# Protocol: as §1
# [8] = system: Klebsiella pneumoniae 1136; assay: in vitro MIC, chessboard microdilution, Klebsiella pneumoniae 1136; format: cell-based; conditions: for MIC: Klebsiella pneumoniae, 1136, alone, 18 hours, 37° C., read-out: MIC, antibiotic alone
# Protocol: as §1
# [9] = system: Pseudomonas aeruginosa G 121; assay: in vitro MIC, chessboard microdilution, Pseudomonas aeruginosa G 121; format: cell-based
# Protocol: as §1
# Staphylococcus aureus = assay: in vitro MIC, chessboard microdilution, Staphylococcus aureus; format: cell-based
# Protocol: as §1
# Klebsiella pneumoniae 1 = assay: in vitro MIC, chessboard microdilution, Klebsiella pneumoniae 1; format: cell-based
# Protocol: as §1
# Proteus mirabilis 1077 = assay: in vitro MIC, chessboard microdilution, Proteus mirabilis 1077; format: cell-based
# Protocol: as §1
# Escherichia coli 205 = assay: systemic infection in mice, survival, Escherichia coli 205; format: in vivo; conditions: fifth day
# Protocol: as §2, §3, §4, §5
# [10] = system: Escherichia coli 205 RTEM^+; assay: systemic infection in mice, survival, Escherichia coli 205 RTEM+; format: in vivo; conditions: 40 mg/kg s.c., fifth day
# Protocol: as §2, §3, §4, §5
# [11] = system: Klebsiella pneumoniae 327; assay: systemic infection in mice, survival, Klebsiella pneumoniae 327; format: in vivo; conditions: fifth day
# Protocol: as §2, §3, §4, §5
# [12] = system: Klebsiella pneumoniae 329 + Escherichia coli 205; assay: systemic polyinfection in mice, survival, Klebsiella pneumoniae 329 + Escherichia coli 205; format: in vivo; conditions: 100 mg/kg s.c., fifth day
# Protocol: as §2, §3, §4, §5
# [13] = system: Gram-negative cocci, Gram-positive cocci and bacteria, and especially against Pseudomonas strains; conditions: carbenicillin-sensitive and carbenicillin-resistant Pseudomonas; cited from earlier work
# [14] = system: enterobacteria, such as Escherichia coli and Klebsiella pneumoniae; conditions: cited from earlier work
# [15] = system: anaerobei, for example Bacteroides; conditions: cited from earlier work
# [16] = known β-lactamase inhibitors themselves; cited from earlier work
# [17] = in combination with Mecillinam 0.25 mcg/ml
# [18] = in combination with Gentamicin 0.25 mcg/ml
# [19] = in combination with Cefsulodin-Na 12.5 mcg/ml
compound,measurement,setting,value
Gentamicin,"MIC, antibiotic alone","Proteus rettgeri 1121; alone, 18 hours, 37° C.",1 µg/mL
same,"MIC, antibiotic B in combination with A",Proteus rettgeri 1121; in combination with Cefsulodin-Na 0.8 mcg/ml,0.5 µg/mL
same,"MIC, antibiotic alone","[1]; alone, 18 hours, 37° C.",0.5 µg/mL
same,"MIC, antibiotic B in combination with A",[1]; in combination with Cefsulodin-Na 0.06 mcg/ml,0.25 µg/mL
same,"MIC, antibiotic alone","[2]; alone, 18 hours, 37° C.",32 µg/mL
same,"MIC, antibiotic B in combination with A",[2]; in combination with Cefsulodin-Na 2 mcg/ml,4 µg/mL
same,"MIC, antibiotic alone","Escherichia coli 576; alone, 18 hours, 37° C.",2 µg/mL
same,"MIC, antibiotic B in combination with A",Escherichia coli 576; in combination with Cefsulodin-Na 32 mcg/ml,0.25 µg/mL
same,"surviving animals, antibiotic alone",[3]; 0.2 mg/kg s.c.,30%
same,"Clearance of the kidneys from both micro-organisms, antibiotic alone",[4]; 1 mg/kg s.c.,0%
same,"Clearance of the kidneys from both micro-organisms, antibiotic alone",[5]; 0.5 mg/kg s.c.,0%
same,"Clearance of the kidneys from both micro-organisms, antibiotic alone",[5]; 2.5 mg/kg s.c.,40%
"NC(=O)c1cc[n+](CC2=C(C(=O)O)N3C(=O)[C@@H](NC(=O)[C@@H](c4ccccc4)S(=O)(=O)[O-])[C@H]3SC2)cc1 [Cefsulodin-Na, sodium salt of N-[7β-(α-sulfophenylacetamido)ceph-3-em-3-yl-methyl]-4'-carbamoylpyridinium-4-carboxylate]",MIC,[6],1 µg/mL
same,"MIC, antibiotic A in combination with B",[6]; in combination with Mecillinam 32 mcg/ml,0.25 µg/mL
same,MIC,Escherichia coli 12-44,25 µg/mL
same,"MIC, antibiotic A in combination with B",Escherichia coli 12-44; in combination with Mecillinam 0.12 mcg/ml,12.5 µg/mL
same,MIC,[7],25 µg/mL
same,"MIC, antibiotic A in combination with B",[7]; [17],6.2 µg/mL
same,MIC,[8],50 µg/mL
same,"MIC, antibiotic A in combination with B",[8]; [17],12.5 µg/mL
same,MIC,"Proteus rettgeri 1121; alone, 18 hours, 37° C.",12.5 µg/mL
same,"MIC, antibiotic A in combination with B",Proteus rettgeri 1121; in combination with Gentamicin 0.5 mcg/ml,0.8 µg/mL
same,"MIC, antibiotic A in combination with B",Proteus rettgeri 1121; in combination with Mecillinam 1.6 mcg/ml,0.4 µg/mL
same,MIC,"[9]; Pseudomonas aeruginosa, G121, alone, 18 hours, 37° C., read-out: MIC, antibiotic alone",1.2 µg/mL
same,"MIC, antibiotic A in combination with B",[9]; in combination with Mezlocillin 12.5 mcg/ml,0.04 µg/mL
same,MIC,"Staphylococcus aureus; Staphylococcus aureus, alone, 18 hours, 37° C., read-out: MIC, antibiotic alone",3.2 µg/mL
same,"MIC, antibiotic A in combination with B",Staphylococcus aureus; in combination with Mezlocillin 1.6 mcg/ml,0.2 µg/mL
same,MIC,"Klebsiella pneumoniae 1; Klebsiella pneumoniae, 1, alone, 18 hours, 37° C., read-out: MIC, antibiotic alone",50 µg/mL
same,"MIC, antibiotic A in combination with B",Klebsiella pneumoniae 1; in combination with Mezlocillin 0.16 mcg/ml,25 µg/mL
same,MIC,"Proteus mirabilis 1077; Proteus mirabilis, 1077, alone, 18 hours, 37° C., read-out: MIC, antibiotic alone",50 µg/mL
same,"MIC, antibiotic A in combination with B",Proteus mirabilis 1077; in combination with Mezlocillin 0.25 mcg/ml,12.5 µg/mL
same,MIC,"[1]; Pseudomonas aeruginosa, 410, alone, 18 hours, 37° C., read-out: MIC, antibiotic alone",2 µg/mL
same,"MIC, antibiotic A in combination with B",[1]; [18],0.06 µg/mL
same,MIC,"[2]; Pseudomonas aeruginosa, 1140, alone, 18 hours, 37° C., read-out: MIC, antibiotic alone",8 µg/mL
same,"MIC, antibiotic A in combination with B",[2]; in combination with Gentamicin 4 mcg/ml,2 µg/mL
same,MIC,"Escherichia coli 576; Escherichia coli, 576, alone, 18 hours, 37° C., read-out: MIC, antibiotic alone",64 µg/mL
same,"MIC, antibiotic A in combination with B",Escherichia coli 576; [18],32 µg/mL
same,"surviving animals, antibiotic alone",Escherichia coli 205; 25 mg/kg s.c.,5%
same,"surviving animals, antibiotic alone",Escherichia coli 205; 40 mg/kg s.c.,10%
same,"surviving animals, antibiotic alone",[10],0%
same,"surviving animals, antibiotic alone",[3]; 40 mg/kg s.c.,0%
same,"surviving animals, antibiotic alone",[3]; 50 mg/kg s.c.,0%
same,"surviving animals, antibiotic alone",[3]; 80 mg/kg s.c.,5%
same,"surviving animals, antibiotic alone",[11]; 50 mg/kg s.c.,0%
same,"surviving animals, antibiotic alone",[11]; 100 mg/kg s.c.,0%
same,"surviving animals, antibiotic alone",[12],0%
same,"Clearance of the kidneys from both micro-organisms, antibiotic alone",[4]; 25 mg/kg s.c.,0%
same,"Clearance of the kidneys from both micro-organisms, antibiotic alone",[5]; 25 mg/kg s.c.,10%
same,antibiotic action,[13],"directed against Gram-negative cocci, Gram-positive cocci and bacteria, and especially against Pseudomonas strains, both carbenicillin-sensitive and carbenicillin-resistant"
same,antibiotic action against enterobacteria,[14],relatively insignificant action
same,antibiotic action against anaerobei,[15],relatively insignificant action
O=C(O)[C@H]1/C(=C/CO)O[C@@H]2CC(=O)N21 [clavulanic acid],antibiotic action,[16],insignificant antibiotic action
CC1(C)S[C@@H]2[C@H](/N=C/N3CCCCCC3)C(=O)N2[C@H]1C(=O)O [Mecillinam],MIC,[6],1000 µg/mL
same,"MIC, antibiotic B in combination with A",[6]; in combination with Cefsulodin-Na 0.25 mcg/ml,32 µg/mL
same,MIC,Escherichia coli 12-44,2 µg/mL
same,"MIC, antibiotic B in combination with A",Escherichia coli 12-44; [19],0.12 µg/mL
same,MIC,[7],1 µg/mL
same,"MIC, antibiotic B in combination with A",[7]; in combination with Cefsulodin-Na 6.2 mcg/ml,0.25 µg/mL
same,MIC,[8],1 µg/mL
same,"MIC, antibiotic B in combination with A",[8]; [19],0.25 µg/mL
same,MIC,"Proteus rettgeri 1121; alone, 18 hours, 37° C.",3.2 µg/mL
same,"MIC, antibiotic B in combination with A",Proteus rettgeri 1121; in combination with Cefsulodin-Na 0.4 mcg/ml,1.6 µg/mL
same,"surviving animals, antibiotic alone",Escherichia coli 205; 1 mg/kg s.c.,0%
same,"surviving animals, antibiotic alone",Escherichia coli 205; 2 mg/kg s.c.,0%
same,"surviving animals, antibiotic alone",[3]; 300 mg/kg s.c.,0%
